Test results published in patent US20080076772A1, “Anti-Inflammatory Agents” (Pharma Mar S.A. Sociedad Unipersonal, priority 2004, published 2008).

What was measured:
[1] = test system: CCL2; test: Constitutive CCL2 production by freshly isolated ovarian tumour cells (ELISA); assay type: cell-based, human; settings: 16 h
Text: Tumour-associated macrophages (TAM) and tumour cells were isolated from the ascitic fluid of patients with diagnosed ovarian adenocarcinoma, admitted to the Clinic of Obstetrics and Gynecology of the University of Milan-Bicocca, S Gerardo Hospital. Cells contained in the ascitic fluid were centrifuged and isolated by differential density gradients of Ficoll and Percoll, and plastic adherence as previously described (see Allavena, P., Peccatori, F., Maggioni, D., Erroi, A., Sironi, M., Colombo, N., Lissoni, A., Galazka, A., Meiers, W., Mangioni, C., et al. Intraperitoneal recombinant gamma-interferon in patients with recurrent ascitic ovarian carcinoma: modulation of cytotoxicity and cytokine production in tumour-associated effectors and of major histocompatibility antigen expression on tumour cells. Cancer Res, 50: 7318-7323, 1990). Purity of TAM and tumour cell preparations was usually>65±10% as defined by morphology and phenotype analysis. Cells were treated with ecteinascidin 743 at the indicated concentrations and cultured for 1-5 days, as specified in figure legends. […]
Monocytes, macrophages and TAM were stimulated with 100 ng/ml LPS to induce maximal cytokine production. Determination of cytokines CCL2, TNF and IL-6 was measured by specific ELISA following the manufacturer's instructions. […]

[2] = test system: TNF; test: TNF production by LPS-stimulated in vitro differentiated macrophages (ELISA); assay type: cell-based, human; settings: LPS 100 ng/ml, 16 h incubation
Description: (§1) Monocytes, macrophages and TAM were stimulated with 100 ng/ml LPS to induce maximal cytokine production. Determination of cytokines CCL2, TNF and IL-6 was measured by specific ELISA following the manufacturer's instructions.
(§2) To verify whether the inhibitory effect of ecteinascidin 743 on cytokine production was at the transcriptional level, we analyzed mRNA of CCL2 and TNF from LPS-stimulated macrophages by real time-PCR of CCL2 and TNF transcripts in LPS-stimulated monocytes exposed to ecteinascidin 743.

[3] = test system: IL-6; test: IL-6 production by LPS-stimulated monocytes (ELISA); assay type: cell-based; settings: Homo sapiens, Monocyte; 5 nM, n=2; read-out: overall inhibition of IL-6 production, monocytes
Description: as §1, with “Supernatants of untreated cells or cells treated with ecteinascidin 743 or other anti-neoplastic agents were collected after 24 h culture and frozen. Monocytes,” for “Monocytes,”
Monocytes and in vitro differentiated macrophages were stimulated with LPS (100 ng/ml). After 1 h LPS stimulation they were treated with ecteinascidin 743. After 16 h incubation, cell supernatants were harvested and tested in ELISA. Under these treatment conditions cell viability was usually >85% for concentrations up to 5 nM. […] Mean inhibition at 5 nM, for monocytes, was 65% (range 50-80%, n=5) and was 50% (range 25-75%, n=5) for in vitro differentiated macrophages. Results are mean+/−SE of 3-5 experiments
We also tested two other cytokines, IL-6 and TNF, produced by macrophages and tumour cells, which have inflammatory properties and also act as growth factors for some tumours. IL-6 production was always reduced after ecteinascidin 743 treatment, with an overall inhibition at 5 nM of 54% (range 51-57%, n=2) and 69% (range 66-72%, n=2), in monocytes and macrophages, respectively (FIG. 6B). […]

[4] = test system: in vitro differentiated macrophages; test: Cell viability of in vitro differentiated macrophages (PI staining, flow cytometry); assay type: cell-based, human
Description: Apoptosis was detected by staining with AnnexinV and PI.
We next studied the effect of ecteinascidin 743 on already differentiated macrophages obtained from monocytes cultured in vitro for 5 days with M-CSF. […] Monocytes were differentiated to macrophages by culture with M-CSF (20 ng/ml). At day 3, ecteinascidin 743 was added to cultures and incubated for 48 h. […] Similar results were obtained in other 4 experiments. In a series of 4 different experiments, IC50 for in vitro differentiated was 10 nM.
We then tested the susceptibility to ecteinascidin 743 of macrophages classically activated by LPS and IFN gamma (or M1 macrophages) and alternatively activated by IL-4 (or M2 macrophages). In vitro differentiated macrophages were stimulated with LPS (100 ng/ml)+IFNgamma (500 UI:ml), Il-4 (20 ng/ml), in the presence or absence of ecteinascidin 743 for 48 h.

[5] = test system: T lymphocytes; test: Cell viability of purified T lymphocytes (PI staining, flow cytometry); assay type: cell-based, human; settings: 48 h
Description: Purified populations of human blood monocytes were prepared as previously described by differential density centrifugation on Ficoll and Percoll gradients (see Allavena, P., Piemonti, L., Longoni, D., Bernasconi, S., Stoppacciaro, A., Ruco, L., and Mantovani, A. IL-10 prevents the differentiation of monocytes to dendritic cells but promotes their maturation to macrophages. Eur J Immunol, 28: 359-369, 1998). […] Human thymocytes were isolated from resected thymus from pediatric patients undergoing surgery. Thymocytes were obtained by teasing and isolated on Percoll gradient.
Cell viability was analyzed by DNA content in Flow Cytometry
Cells exposed to treatments were fixed with ethanol 70%, washed in PBS and stained with propidium iodide (PI) solution containing 10 ug/ml PI in PBS and 25 μl RNAse 10,000 units, overnight in the dark. PI incorporation was evaluated on at least 20,000 cells/sample using a FACS Calibur instrument (Becton Dickinson, Sunnyvale, Calif., USA), with a bandpass filter at 620 nm. Apoptosis was detected by staining with AnnexinV and PI. FACS analysis was performed using a bandpass filter 530 and 620 nm for green (AnnexinV) and red (PI) fluorescence respectively, in combination with a […] dichroic mirror.
Purified preparations of blood monocytes, lymphocytes and thymocytes were cultured with different concentrations of ecteinascidin 743 for 48 h. […]

[6] = test system: CCL2 transcripts; test: Real time-PCR of CCL2 transcripts in LPS-stimulated monocytes; assay type: cell-based, human
Text: as §2

With COc1cc2c(cc1O)CCN[C@]21CS[C@@H]2c3c(OC(C)=O)c(C)c4c(c3[C@H](COC1=O)N1[C@@H]2[C@H]2c3c(cc(C)c(OC)c3O)C[C@@H]([C@@H]1O)N2C)OCO4 [ecteinascidin 743] the “constitutive production of CCL2 by freshly isolated tumour cells” value [1] was “reduced”, the “production of TNF by macrophages” value [2] was “never inhibited” and the inhibition at 0.005 µM [3] was 54%. For the same molecule, the IC50 ([4]; Homo sapiens, Macrophage, drug added in the last 48 h, series of 4 experiments) was 10 nM, the “susceptibility of LPS-stimulated and IL-4-stimulated macrophages” value ([4]; LPS 100 ng/ml + IFNgamma 500 UI/ml or IL-4 20 ng/ml, 48 h) was “susceptible to drug treatment similarly as non-stimulated macrophages” and the “viability of T lymphocytes” value ([5]; 5 nM) was “all alive”. For the same molecule, the IC50 ([5]; Homo sapiens, T-lymphocyte) was 20 nM and the CCL2 transcripts [6] was “consistent reduction”.
